This is an account of results in PubChem BioAssay AID720570 (Broad Institute, 2013).

Activity calls are given as the source filed them.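 How the source made its calls: active means cell-killing curve crosses a set limit at a concentration no more than twice the top valid dose; inconclusive means flat curve with a 30 to 70% loss, or a poor fit; inactive means signal rising instead of falling, and the rest.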

The assay can be described thus: TC71 Ewing sarcoma cell killing, confirmation, luminescence, cherry-picked samples, retest (AID 720570). As to conditions: TC71 Ewing sarcoma viability, CellTiter-Glo ATP, 72 h; at 26 µM (top of the series). Background: In ATP-based viability assays light output follows the ATP content of the culture.

As for `COc1ccc(/C=C2\Oc3ccccc3C2=O)cc1`, the activity change, negative = cytotoxicity is -14.5% (inactive).

Take `C/C(=N\N(c1ccccc1)c1ccccc1)c1ccco1`: the activity change, negative = cytotoxicity was 12.8% (inactive).

Consider `COc1ccc(NS(=O)(=O)c2cc(NC(=O)CNC(=O)c3cccc(OC)c3)ccc2C)cc1`, for which the activity change, negative = cytotoxicity was -0.075% (inactive).

Turning to `Cc1cc(C(=O)NNC(=O)c2ccc(S(=O)(=O)N(C)C)cc2)c(C)o1`, the activity change, negative = cytotoxicity is 17.6% (inactive).

For `S=C(NCCN1CCOCC1)Nc1ccccc1Cl`, the activity change, negative = cytotoxicity is 11.4% (inactive).

In the case of `C(=C\c1ccc(C2[C@H]3CNC[C@@H]2N3Cc2ccccn2)cc1)/c1ccccc1` (stereo partly specified), the activity change, negative = cytotoxicity was -7.86% (inactive).

`CC(C)(C)C(=O)Nc1ccc(N=Nc2ccccc2)cc1`: the activity change, negative = cytotoxicity was -0.79% (inactive).

Turning to `Nc1ccc2oc(-c3cc(Br)ccc3Cl)nc2c1`, the activity change, negative = cytotoxicity is -14.7% (inactive).

With `C/C(=N\OCc1cccc(C(=O)O)c1)c1ccc(Cl)cc1`, the activity change, negative = cytotoxicity is -12.2% (inactive).

Regarding `C[C@H](CO)N1C[C@H](C)[C@H](CN(C)Cc2ccc(C(F)(F)F)cc2)Oc2c(NS(=O)(=O)c3ccc(Cl)cc3)cccc2C1=O`, the activity change, negative = cytotoxicity is 46.6% (inactive).

Turning to `COC(=O)C[C@@H]1CC[C@@H]2[C@H](COc3ccc(NC(=O)Nc4ccc(C#N)cc4)cc3C(=O)N2C)O1`, the activity change, negative = cytotoxicity is 4.12% (inactive).

Regarding `N#C[C@H]1[C@H](c2ccc(C#Cc3ccccc3F)cc2)[C@@H](CO)N1C(=O)C1CCOCC1`, the activity change, negative = cytotoxicity was -12.8% (inactive).

Turning to `O=C(COC(=O)c1ccc[nH]c1=O)Nc1ccc(N2CCCCC2)cc1`, the activity change, negative = cytotoxicity was 6.54% (inactive).

On to `COC(=O)Cc1ccc(NC(=O)c2ccccc2Cl)cc1`, for which the activity change, negative = cytotoxicity is -1.96% (inactive).

`COc1ccc(N=C2C(=O)Nc3ccc(C)c(Br)c32)cc1`: the activity change, negative = cytotoxicity is 5.89% (inactive).

Turning to `CC(=NNc1ccc2ccccc2n1)c1ccccc1O`, the activity change, negative = cytotoxicity was -20.9% (inactive).

Consider `COCCCNc1ccn2nc(-c3ccccc3)cc2n1`, for which the activity change, negative = cytotoxicity is -3.56% (inactive).

In the case of `CNC[C@H](CC1CCCCC1)NC[C@H](CO)NCCc1cccc(C(F)(F)F)c1`, the activity change, negative = cytotoxicity is 3.89% (inactive).

`OCCN1CCN(C(=S)c2ccc(-c3ccccc3)cc2)CC1`: the activity change, negative = cytotoxicity was -0.296% (inactive).

As for `COC(=O)Cc1[nH]n(-c2nc3ccccc3s2)c(=O)c1C(C)=Nc1ccc(C)cc1`, the activity change, negative = cytotoxicity is -7.01% (inactive).

Regarding `COC(=O)[C@H]1[C@H](CO)[C@H]2Cn3c(ccc(-c4ccccc4F)c3=O)[C@@H]1N2CC1CCCC1`, the activity change, negative = cytotoxicity is 4.06% (inactive).

On to `CC(=O)c1ccc(N(C(=O)Cn2nnc3ccccc32)C(C(=O)NCc2ccccc2)c2ccccn2)cc1` (stereo unspecified), for which the activity change, negative = cytotoxicity is 9.64% (inactive).

On to `Cc1noc(C)c1NC(=O)Nc1ccc2c(c1)CC(=O)N([C@@H](C)CO)C[C@@H](C)[C@@H](CN(C)Cc1ccc(Cl)c(Cl)c1)O2`, for which the activity change, negative = cytotoxicity was -0.95% (inactive).

`C/C=C/c1ccc(C2[C@@H]3CN(C(=O)Cc4ccccc4)C[C@H]2N3)cc1` (stereo partly specified): the activity change, negative = cytotoxicity is 6.18% (inactive).

On to `COc1ccc(/C=C2\SC(=O)N(CCCC(=O)Nc3cc(Cl)ccc3C(=O)O)C2=O)cc1`, for which the activity change, negative = cytotoxicity is 5.69% (inactive).

For the molecule `O=C(CCCN1C(=O)/C(=C/c2ccccc2Cl)SC1=S)NNC(=O)c1ccc(Cl)cc1Cl`, the activity change, negative = cytotoxicity is -1.95% (inactive).

`Cc1ccc(Cl)cc1NC(=O)Cn1cc(C(F)(F)F)cc(Cl)c1=O`: the activity change, negative = cytotoxicity was 2.53% (inactive).

As to `Cc1ccc(C(C(=O)NCc2ccco2)N(C(=O)CNC(=O)c2cccs2)c2c(C)cc(C)cc2C)cc1` (stereo unspecified), the activity change, negative = cytotoxicity is -13.1% (inactive).

Regarding `O=C(NC1CCCC1)C(c1ccccc1)n1c(CSCCOc2ccccc2)nc2ccccc21` (stereo unspecified), the activity change, negative = cytotoxicity was 3.49% (inactive).

For `C[C@H](CO)N1C[C@H](C)[C@H](CN(C)CC2CCCCC2)Oc2ccc(NC(=O)Nc3cccc4ccccc34)cc2C1=O`, the activity change, negative = cytotoxicity is 6.42% (inactive).

With `COC(=O)c1c(C)[nH]c(/C=N/Nc2ccccc2)c1C`, the activity change, negative = cytotoxicity is 7.36% (inactive).

As for `O=C(CNC(=O)Cc1ccccc1)N=Nc1c(O)n(Cc2ccc3c(c2)OCO3)c2ccccc12`, the activity change, negative = cytotoxicity is 8.54% (inactive).

Take `O=C(O)c1ccc(N/N=C/c2ccc(OC(=O)c3cccc(Cl)c3)cc2)cc1`: the activity change, negative = cytotoxicity is -1.51% (inactive).

In the case of `CN(C)C(=O)c1ccc(-c2ccccc2[C@@H]2[C@@H](CO)N(C(=O)C3CC3)[C@H]2C#N)cc1`, the activity change, negative = cytotoxicity is 25.5% (inactive).

Turning to `COc1ccc2oc(-c3ccccc3)cc(=O)c2c1`, the activity change, negative = cytotoxicity was 1.87% (inactive).

Turning to `CC(C)c1oc(=O)cc2c1[C@@H](O)[C@H]1OC(=O)[C@@]3(C)CC[C@@H](O)[C@@]2(C)C13` (stereo partly specified), the activity change, negative = cytotoxicity was -18.6% (inactive).

For the molecule `C[C@@H]1CN([C@H](C)CO)C(=O)CCCn2nncc2CO[C@H]1CN(C)Cc1ccc(Oc2ccccc2)cc1`, the activity change, negative = cytotoxicity was -9.65% (inactive).

For `COC(=O)COc1ccc(-c2nccc(-c3ccccn3)n2)cc1`, the activity change, negative = cytotoxicity was 7.95% (inactive).

As to `COC(=O)C(CC#Cc1ccc2c(c1)[C@]1(C(=O)N2)[C@H](c2ccc(OCCO)cc2)N2[C@H](c3ccccc3)[C@H](c3ccccc3)OC(=O)[C@H]2[C@@H]1C(=O)N1CCN(c2ncccn2)CC1)C(=O)OC`, the activity change, negative = cytotoxicity is 3.63% (inactive).

In the case of `COc1ccc(C(=O)OCC(=O)Nc2ccc(Cl)c(C(F)(F)F)c2)c(OC)c1OC`, the activity change, negative = cytotoxicity was 3.2% (inactive).

For `CCCN1C(=O)/C(=C/c2nc3ccccc3c(=O)[nH]2)c2ccccc21`, the activity change, negative = cytotoxicity was 3.09% (inactive).

For `C(=N\Nc1ccc2ccccc2n1)/c1ccc2c(c1)OCCO2`, the activity change, negative = cytotoxicity was -8.46% (inactive).

Turning to `CN(C(=O)COC(=O)c1cc(-c2ccccc2Cl)nc2ccccc12)C1CCS(=O)(=O)C1` (stereo unspecified), the activity change, negative = cytotoxicity is 5.31% (inactive).

For `CN(C)[C@@H]1CCC[C@@H]1OC(=O)C(c1ccccc1)c1ccccc1`, the activity change, negative = cytotoxicity was 10.9% (inactive).

For the molecule `COC(=O)C[C@@H]1CC[C@@H]2[C@H](COc3ccc(NC(=O)c4ccccc4)cc3C(=O)N2C)O1`, the activity change, negative = cytotoxicity is 7.67% (inactive).

On to `CCN1CCN(/C=N/c2nc3c(s2)CCCC3)CC1`, for which the activity change, negative = cytotoxicity was -11.1% (inactive).

Regarding `O=C(NCc1ccccn1)c1ccc(CNS(=O)(=O)c2cccc(Cl)c2)cc1`, the activity change, negative = cytotoxicity is 3.71% (inactive).

`CCOc1ccc(C(c2c(NC(=O)c3ccccc3)sc(C)c2C)N2CCN(CCO)CC2)cc1` (stereo unspecified): the activity change, negative = cytotoxicity is 16.1% (inactive).

For `O=C(O)c1ccc(N/N=C/c2c[nH]c3ccccc23)cc1`, the activity change, negative = cytotoxicity is 19.2% (inactive).

On to `CCCN(C)C[C@H]1Oc2ncc(-c3ccccc3)cc2C(=O)N([C@@H](C)CO)C[C@H]1C`, for which the activity change, negative = cytotoxicity was 13% (inactive).

`Cc1noc(C)c1NC(=O)Nc1ccc2c(c1)CC(=O)N([C@H](C)CO)C[C@@H](C)[C@@H](CN(C)Cc1ccc(Cl)c(Cl)c1)O2`: the activity change, negative = cytotoxicity is 0.509% (inactive).

Regarding `COc1ccccc1NS(=O)(=O)c1cc(NC(=O)c2cc3ccccc3oc2=O)ccc1C`, the activity change, negative = cytotoxicity was 1.31% (inactive).

Take `CC(=O)c1ccc(N=Nc2ccc(C)cc2)cc1`: the activity change, negative = cytotoxicity is 13.2% (inactive).

For `CC(=O)c1ccc(NC(=O)c2noc3c2CCC3)cc1`, the activity change, negative = cytotoxicity is -19.5% (inactive).

As to `Cc1ccsc1/C=N/Nc1ccc(C(=O)O)cc1`, the activity change, negative = cytotoxicity is -11.1% (inactive).

As for `CC(C)c1ccccc1NC(=O)COC(=O)CCN1C(=O)/C(=C\C=C\c2ccccc2)SC1=S`, the activity change, negative = cytotoxicity was 19.1% (inactive).

As to `CCCNC(=O)[C@@H]1[C@@H](CO)[C@@H]2Cn3c(ccc(-c4ccccc4)c3=O)[C@H]1N2C(=O)CC`, the activity change, negative = cytotoxicity was 0.956% (inactive).

Turning to `COc1ccc(/C=C2/SC(=S)N(CCCC(=O)Nc3ccccc3C(=O)O)C2=O)cc1`, the activity change, negative = cytotoxicity was 15% (inactive).

Regarding `CN(C)C(=O)c1cccc(-c2ccc(C3[C@@H]4CN(Cc5nccs5)C[C@H]3N4)cc2)c1` (stereo partly specified), the activity change, negative = cytotoxicity is 0.197% (inactive).

On to `COC(=O)c1cccc(NC(=O)NC(=O)c2ccc(Cl)cc2)c1`, for which the activity change, negative = cytotoxicity is -16.8% (inactive).

For the molecule `CN(C)c1ccc(/C=N/Nc2nc3ccccc3o2)cc1`, the activity change, negative = cytotoxicity is 1.68% (inactive).

`CCCCNC1=CC(=O)C(=O)c2ccccc21`: the activity change, negative = cytotoxicity is 3.77% (inactive).

As for `COc1ccc(C(=O)CN2C(=O)c3ccccc3S2(=O)=O)cc1`, the activity change, negative = cytotoxicity is 19.9% (inactive).

As to `Cc1ccsc1/C=N/Nc1cccc(C(=O)O)c1`, the activity change, negative = cytotoxicity is -2.07% (inactive).

Regarding `Cc1ccc(/C=C/C(=O)N2CCN(S(=O)(=O)c3c(C)c(C)cc(C)c3C)CC2)o1`, the activity change, negative = cytotoxicity was -5.96% (inactive).

For the molecule `Cc1c(N=Cc2cc(Br)cc(Br)c2O)cccc1C(=O)O`, the activity change, negative = cytotoxicity was 25.2% (inactive).

In the case of `Cc1ccc2oc(/N=C(\N)NC(=O)C(C)(C)C)nc2c1`, the activity change, negative = cytotoxicity is 2.46% (inactive).

As for `COC(=O)C[C@H]1CC[C@@H](NC(=O)Nc2ccc(C(F)(F)F)cc2)[C@H](CO)O1`, the activity change, negative = cytotoxicity was -8.02% (inactive).

`Cc1nc2cc(-c3ccc(Cl)cc3)nn2c(C)c1CCC(=O)NC(C)c1ccc2c(c1)OCCO2` (stereo unspecified): the activity change, negative = cytotoxicity is 14.2% (inactive).

In the case of `O=c1cc(CN2CCN(Cc3ccccc3)CC2)c2ccc(O)c(O)c2o1`, the activity change, negative = cytotoxicity is -9.02% (inactive).

For `COC(=O)C[C@@H]1CC[C@@H]2[C@@H](COc3ccc(NC(=O)Cc4cccs4)cc3C(=O)N2C)O1`, the activity change, negative = cytotoxicity is 14.1% (inactive).
